{"source": "patent US5503852A", "about": "“Method for making self-assembling diketopiperazine drug delivery system” (Pharmaceutical Discovery Corporation, priority 1994, dated 1996)", "key": {"[1]": {"settings": "at clinically effective concentrations; cited from earlier work"}, "[2]": {"test": "Solubility in aqueous media", "assay_type": "physicochemical"}, "[3]": {"test": "Blood glucose levels after insulin", "assay_type": "in vivo, rats", "settings": "subcutaneous; 100 μg insulin/kg", "experimental": "Porcine insulin (Sigma Chemical Co., St. Louis, Mo., Catalog No. 1 3505, specific activity: approximately 24 IU/mg) was encapsulated in 2,5-diketo- 3,6-di (4-fumarylamino)piperazine, prepared using the same method in Example 1, by dissolving the diketopiperazine in sodium bicarbonate to form a solution containing 12.5 mg diketopiperazine/ml solution. This solution was then mixed with an equal volume of citric acid solution containing porcine insulin at a concentration of 0.172 mg insulin/ml citric acid to form a white precipitate. The product was collected by centrifuge and washed once with 200 ml of deionized water, and then dried overnight in the lyophilizer. The product was assayed by HPLC and found to contain 1.6% insulin by weight.\nIn total, three male rats weighing about 200 g each were each administered a dose of 100 μg insulin/kg body weight. The dose was given subcutaneously and also as insulin encapsulated in diketopiperazine. Control animals received only the diketopiperazine and the vehicle, phosphate buffered saline. Blood glucose levels were measured on samples taken from the tail vein at various times after treatment and measured as mg of glucose/dl blood using one drop of tail blood squeezed onto a Glucofilm™ strip."}}, "data": [{"molecule": "NC(=O)OCC(COC(N)=O)c1ccccc1", "note": "[felbamate]", "values": [{"measurement": "solubility in aqueous media", "setting": "[1]", "result": "not soluble in aqueous media at clinically effective concentrations"}]}, {"molecule": "O=C(O)CCC(=O)NCCCCC1NC(=O)C(CCCCNC(=O)CCC(=O)O)NC1=O", "note": "(stereo not shown) [2,5-diketo-3,6-di(4-succinylaminobutyl)piperazine]", "values": [{"measurement": "solubility", "setting": "[2]; acidic aqueous solutions", "result": "quite insoluble in acidic aqueous solutions"}, {"measurement": "solubility", "setting": "[2]; weakly alkaline aqueous solution", "result": "readily soluble in weakly alkaline aqueous solution"}]}, {"molecule": "encapsulated insulin by subcutaneous injection: Porcine insulin (Sigma Chemical Co.), given subcutaneously", "values": [{"measurement": "blood glucose level", "setting": "[3]", "result": "A marked decrease in blood glucose level"}]}]}
